According to the METLIN SMRT retention time set (Domingo-Almenara et al. 2019):

Experiment: gradient 5% acetonitrile 3 min, to 50% in 2 min, to 85% in 15 min, held 3 min, 100 µL/min
Details: column: Zorbax Extend-C18 2.1 x 50 mm; eluents: water / acetonitrile, 0.1% formic acid
Summary of the method: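 Retention times of pure standards were taken from adduct peaks that were selected by computer and manually inspected. Over 3 months, mixtures of ~100 molecules were run by HPLC–quadrupole time-of-flight mass spectrometry in positive and negative ionization mode. The Zorbax Extend-C18 column (2.1 × 50 mm, 1.8 μm) ran at 100 μL/min in water and acetonitrile, each containing 0.1% formic acid, with 40 μL dead volume and 900 μL dwell volume.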

| SMILES | RP-LC retention time [s] |
| --- | --- |
| Cc1cc(-c2nnc(-c3ccc(F)cc3)o2)c(C)n1CC(=O)NCc1cccc(F)c1 | 940 |
| CCOC(=O)C1CCN(C(=O)c2nc(N3CCCC3)c3c(C)cc(C)nc3n2)CC1 | 631 |
| Cc1ccc(NC(=O)CN2C(=O)CCS(=O)(=O)c3ccccc32)c(C)c1 | 768 |
| CCSc1nc(O)cc(=O)[nH]1 | 628 |
| COC(=O)[C@@H]1[C@H]2C[C@@H]3c4[nH]c5ccccc5c4CCN3C[C@@H]2CC[C@@H]1O | 660 |
| CC[C@H](C)C(=O)O[C@H]1CCC=C2C=C[C@H](C)[C@H](CC[C@@H](O)C[C@@H](O)CC(=O)O)[C@H]21 | 910 |
| CCN(Cc1ccccc1)C(=O)CN1C(=O)C(O)(c2cccc(F)c2)c2ccccc21 (stereo unspecified) | 655 |
| O=C(Cc1nc(-c2ccccc2)n[nH]1)Nc1cccc(Cl)c1 | 800 |
| Cc1ccc(-n2nc(SC(C)C(=O)NC3CC3)ccc2=O)cc1Cl (stereo unspecified) | 750 |
| CC1CCN(Cc2csc(N3CCN(C(=O)c4ccc5c(c4)OCO5)CC3)n2)CC1 | 632 |
| COCCC(=O)N1CC(F)(F)C[C@H]1c1nc(COC)no1 | 649 |
| CCc1noc(NC(C)=O)c1-c1ccc(OC)c(S(=O)(=O)Nc2cc(OC)ccc2OC)c1 | 774 |
| C=CCOc1c(CCC)cc(CCC)cc1C(N)=O | 1130 |
| CCC(=O)N1CCc2c(sc3ncnc(N4CCN(C)CC4)c23)C1 | 546 |
| CCC(C(=O)Nc1ccc(-c2nc(Cn3cccn3)c(C)o2)cc1)c1ccccc1 (stereo unspecified) | 962 |
| CCc1nnc(-c2cccn2CC(=O)NCc2ccc3c(c2)OCO3)o1 | 743 |
| CCn1cc(C2=CCN(C(=O)Nc3ccc(SC)cc3)CC2)c2cccnc21 | 910 |
| Cc1ccc(N2C=NS(=O)(=O)c3cccnc32)cc1F | 815 |
| Cn1nc(-c2nc(C3CC3)no2)c2c1CCN(C(=O)c1ccncc1)C2 | 628 |
| CN1C(=O)COc2ccc(-c3csc(NC(=O)c4ccc(Br)cc4)n3)cc21 | 1040 |
| CS(=O)(=O)N1CCC(C(=O)N2CCCc3ccccc32)Oc2ccc(Cl)cc21 (stereo unspecified) | 991 |
| COc1ccc(N2CC(c3nc(-c4ccc(Cl)cc4)no3)CC2=O)cc1OC (stereo unspecified) | 947 |

| SMILES | RP-LC retention time [s] |
| --- | --- |
| Cn1nc(-c2nc(Cc3ccccc3)no2)c2c1CCN(C(=O)NC1CCCCC1)C2 | 933 |
| CC(C)[C@H](NC(=O)OCc1ccccc1)C(=O)N[C@H](C=O)Cc1ccccc1 | 773 |
| COC(=O)c1ccc2c(=O)n(-c3ccc(Cl)cc3)c(N3CCC(C(N)=O)CC3)nc2c1 | 754 |
| O=C1CCN(C(=O)Nc2ccccc2)CCOCCN1 | 613 |
| CNC(=O)c1ccc(-c2nc3cc(NS(=O)(=O)c4cc(Cl)ccc4OC)ccc3n2C)cc1 | 671 |
| COc1ccc(Cc2nc(-c3ccc4nnc(C)n4c3)no2)cc1OC | 724 |
| CCn1nc(C)n2cc(S(=O)(=O)NCc3ccc(C)o3)cc2c1=O | 815 |
| O=C(NC1CCCCC1)c1cc2c(s1)CCN(C(=O)c1ccc(F)cc1)C2 | 893 |
| CCc1ccccc1NS(=O)(=O)c1ccc2c(c1)CCCC(=O)N2 | 756 |
| Cn1cc(C(=O)NCc2ccccc2Cl)c(S(=O)(=O)N2CCSCC2)n1 | 890 |
| COc1cc2c(=O)c(C(=O)c3ccncc3)cn(CC(=O)Nc3ccc(F)cc3F)c2cc1Cl | 711 |
| CCc1ccc(CN2CCC3(CC2)CC(O)(COC)CCO3)cc1 (stereo unspecified) | 575 |
| Cc1ccc(NC(=O)N2CCC(CCN)CC2)cc1F | 612 |
| CC(C)CNC(=O)NCC1Cn2cccc2C(=O)N1Cc1ccccc1 (stereo unspecified) | 744 |
| O=C(Cc1csc(NC(=O)c2ccc(=O)[nH]c2)n1)NCc1ccccc1Cl | 616 |
| O=C(NC1CCCC1)C1CCN(c2cncnc2N2CCCCC2)CC1 | 641 |
| O=C(Cc1ccsc1)N1CCCC1(CO)Cc1ccccc1 (stereo unspecified) | 805 |
| COc1ccc(-c2cc3n(n2)CCCN(C(=O)c2cccn2C)C3)cc1 | 807 |
| CCCS(=O)(=O)N1CCC2(CC1)c1[nH]c3ccccc3c1CCN2C | 659 |
| CCc1noc(-c2ccc(-n3cnc(C(=O)NC4CCCCC4)c3)nc2)n1 | 1110 |
| Cc1ccc(S(=O)(=O)N2CCC(n3cnc4c(C)cccc4c3=O)CC2)cc1F | 1030 |
| Cc1nn(C2CCS(=O)(=O)C2)c2nc(-c3ccco3)cc(C(=O)NCC3CCCO3)c12 (stereo unspecified) | 683 |

| SMILES | RP-LC retention time [s] |
| --- | --- |
| CN1CCN(CCNC(=O)CSCc2nc3cccnc3n2C2CCCCC2)CC1 | 600 |
| CN1CCN(CCNC(=O)CCCN2C(=O)C(c3ccccc3)Oc3cccnc32)CC1 (stereo unspecified) | 605 |
| COc1ccc(CN2C=C(C(=O)OCc3noc(-c4cccc(OC)c4)n3)C(C)=NS2(=O)=O)cc1 | 1120 |
| CSc1ccc(NC(=O)Nc2ccccc2C(N)=O)cc1 | 846 |
| COc1ccc(-c2nnc(-c3ccc(C)c(S(=O)(=O)N(C)C)c3)o2)cc1 | 966 |
| COc1cccc(CNC(=O)N2CCCC2c2c(C)noc2C)c1 (stereo unspecified) | 733 |
| Cc1ccc(C)c(CNS(=O)(=O)c2cc(-c3nc(C(C)(C)C)cs3)cs2)c1 | 1360 |
| CC1=NS(=O)(=O)N(Cc2ccccc2)C=C1C(=O)OCc1cc(C)ccc1C | 1200 |
| COc1ccc2nc(SCC(=O)N3CCC(C(N)=O)CC3)nc(C)c2c1 | 626 |
| O=C(Nc1ccc(CC(=O)N2CCOCC2)cc1)c1ccco1 | 594 |
| COc1ccccc1NC(=O)Cn1nc2c(Oc3cc(C)cc(C)c3)nccn2c1=O | 957 |
| CCOc1ccccc1NC(=O)Cn1nc(N2CCSCC2)c2ccccc2c1=O | 929 |
| CCc1nn(CCO)c(CC)c1Oc1cc(C#N)cc(C#N)c1 | 891 |
| N#Cc1ccc(C(=O)N2CCN(c3cc(-c4ccc(Cl)cc4)[nH]n3)CC2)cc1 | 826 |
| CC(=O)N1CCc2cc(C)c(S(=O)(=O)N3CCOCC3)cc21 | 708 |
| O=C(CCN1C(=O)c2ccccc2S1(=O)=O)Nc1nc(-c2ccccc2)cs1 | 941 |
| CS(=O)(=O)N1CCN(CCNC(=O)NC(c2ccccc2)c2ccccc2)CC1 | 580 |
| CCOC(=O)c1c(NC(=O)CSc2nc(=O)n3cccc(C)c3n2)sc2c1CCC2 | 950 |
| O=C(c1ccc(C(F)(F)F)s1)N1C[C@@H]2C[C@H]1C[C@@H]2NS(=O)(=O)c1cccs1 | 813 |
| O=C(Cn1cccc(-c2nc(-c3ccc(F)cc3)no2)c1=O)NCc1ccccc1Br | 898 |
| O=C(NCc1ccc(F)cc1Cl)C1CCN(c2ncnc3c2oc2ccccc23)CC1 | 790 |
| O=C(NCc1noc(CCc2ccccc2)n1)c1ccc(-c2noc(C3CC3)n2)cc1 | 977 |
